Here are results for 4 compounds from the NIST ThermoML archive (doi:10.1021/je300382a).

A short description of series [1]: refractive index (Na D-line) (dimensionless). Conditions: 101.33 kPa, Liquid, Standard Abbe refractometry.
The conditions of series [2]: Ring tensiometer.
Series [3] is described as follows: xn = mol fraction of the nth substance listed. Conditions: Ring tensiometer, x2 = 0.
The nature of series [4]: refractive index (Na D-line) (dimensionless); xn = mol fraction of the nth substance listed. Conditions: 101 kPa, Liquid, Standard Abbe refractometry, x2 = 0.

Numbers after ± are expanded uncertainties.

With `CC(N)CN` (stereo not given) [1,2-propanediamine], the refractive index is 1.451 ± 0.0004 in series [1] (283.15 K); 1.4458 ± 0.0004 in series [1] (293.15 K); 1.4409 ± 0.0004 in series [1] (303.15 K); 1.4362 ± 0.0004 in series [1] (313.15 K); 1.4314 ± 0.0004 in series [1] (323.15 K). Besides, the surface tension liquid-gas in series [2] (283.15 K) worked out at 35 ± 0.5 mN/m; in series [2] (293.15 K) it was 33.8 ± 0.5 mN/m; in series [2] (303.15 K) it was 32.7 ± 0.5 mN/m; in series [2] (313.15 K) it was 31.4 ± 0.5 mN/m; in series [2] (323.15 K), 30.3 ± 0.5 mN/m.

Regarding `NCc1ccccc1` [benzylamine], the refractive index in series [1] (283.15 K) is 1.5516 ± 0.0004; in series [1] (293.15 K), 1.5445 ± 0.0004; in series [1] (303.15 K) it was 1.5393 ± 0.0004; in series [1] (313.15 K), 1.5328 ± 0.0004; in series [1] (323.15 K), 1.5279 ± 0.0004. Besides, the surface tension liquid-gas in series [2] (283.15 K) is recorded as 37.9 ± 0.6 mN/m; in series [2] (293.15 K), 37.1 ± 0.5 mN/m; in series [2] (303.15 K) it was 36.3 ± 0.5 mN/m; in series [2] (313.15 K), 35.6 ± 0.5 mN/m; in series [2] (323.15 K) it was 35 ± 1 mN/m.

For the compound `O` [water] + NCc1ccccc1, the surface tension liquid-gas in series [3] (283.15 K) worked out at 74.2 ± 0.9 mN/m; in series [3] (293.15 K), 72.6 ± 0.9 mN/m; in series [3] (303.15 K), 71.1 ± 0.9 mN/m; in series [3] (313.15 K), 69.2 ± 0.9 mN/m; in series [3] (323.15 K), 67.7 ± 0.9 mN/m. Further, the refractive index in series [4] (283.15 K) was 1.3343 ± 0.0003; in series [4] (293.15 K), 1.333 ± 0.0003; in series [4] (303.15 K), 1.3319 ± 0.0003; in series [4] (313.15 K), 1.3306 ± 0.0003; in series [4] (323.15 K), 1.329 ± 0.0003.

For `O` [water] + CC(N)CN, the surface tension liquid-gas in series [3] (283.15 K) was determined as 74.2 ± 0.9 mN/m; in series [3] (293.15 K), 72.6 ± 0.9 mN/m; in series [3] (303.15 K) it was 71.3 ± 0.9 mN/m; in series [3] (313.15 K) it was 69.2 ± 0.9 mN/m; in series [3] (323.15 K) it was 67.7 ± 0.9 mN/m. The refractive index in series [4] (283.15 K) came to 1.3343 ± 0.0003; in series [4] (293.15 K), 1.333 ± 0.0003; in series [4] (303.15 K), 1.3319 ± 0.0003; in series [4] (313.15 K), 1.3306 ± 0.0003; in series [4] (323.15 K) it was 1.329 ± 0.0003.
